Like-named read-outs stand apart in the source and are kept apart here.
Experiments:
hPDE3B = test: In vitro assay PDE3 (SPA, 3H-cAMP); format: biochemical, human; conditions: 0.4 μM cAMP substrate; for hPDE3B Emax: in % (unit assumed)
[1] = target: T1, Human recombinant PDE2A (hPDE2A) (Homo sapiens, UniProt O00408); test: In vitro assay PDE2A (SPA, 3H-cGMP); format: biochemical
T1 construct: made in house; host or cells: Sf9 insect cells (baculovirus)
Experimental: Human recombinant PDE2A (hPDE2A) was expressed in Sf9 cells using a recombinant rPDE10A baculovirus construct. Cells were harvested after 48 h of infection and the hPDE2A protein was purified by metal chelate chromatography on Ni-sepharose 6FF. Tested compounds were dissolved and diluted in 100% DMSO to a concentration 100 fold of the final concentration in the assay. Compound dilutions (0.4 μl) were added in 384 well plates to 20 μl of incubation buffer (50 mM Tris pH 7.8, 8.3 mM MgCl2, 1.7 mM EGTA). 10 μl of hPDE2A enzyme in incubation buffer was added and the reaction was started by addition of 10 μl substrate to a final concentration of 10 μM cGMP and 0.01 μCi ^3H-cGMP. The reaction was incubated for 45 minutes at room temperature. […] After sedimentation of the beads during 30 minutes the radioactivity was measured in a Perkin Elmer Topcount scintillation counter and results were expressed as cpm. For blanc values the enzyme was omitted from the reaction and replaced by incubation buffer. Control values were obtained by addition of a final concentration of 1% DMSO instead of compound.

hPDE10A2 = hPDE10A2 (Homo sapiens, UniProt Q9Y233); test: biochemical; conditions: 60 nM cAMP substrate; for IC50: human clone, read-out: hPDE10A2 or rPDE10A2 pIC50 (converted); for Emax: read-out: hPDE10A2 or rPDE10A2 Emax, human clone
Experimental: Rat recombinant PDE10A (rPDE10A2) was expressed in Sf9 cells using a recombinant rPDE10A baculovirus construct. Cells were harvested after 48 h of infection and the rPDE10A protein was purified by metal chelate chromatography on Ni-sepharose 6FF. Tested compounds were dissolved and diluted in 100% DMSO to a concentration 100 fold of the final concentration in the assay. Human recombinant PDE10A ([…]) was expressed in Sf9 cells using a recombinant hPDE10A baculovirus that was made and amplified in house. Cells were harvested after 72 h of infection and the hPDE10A protein was purified by metal chelate chromatography on Ni-sepharose. Compound dilutions (0.4 μl) were added in 384 well plates to 20 μl of incubation buffer (50 mM Tris pH 7.8, 8.3 mM MgCl2, 1.7 mM EGTA). 10 μl of rPDE10A or hPDE10A enzyme in incubation buffer was added and the reaction was started by addition of 10 μl substrate to a final concentration of 60 nM cAMP and […] ^3H-cAMP. The reaction was incubated for 60 minutes at room temperature. After incubation, the reaction was stopped with 20 μl of stop solution consisting of 17.8 mg/ml PDE SPA (scintillation proximity assay) beads. After sedimentation of the beads during 30 minutes the radioactivity was measured in a Perkin Elmer Topcount scintillation counter and results were expressed as cpm. For blanc values the enzyme was omitted from the reaction and replaced by incubation buffer. Control values were obtained by addition of a final concentration of 1% DMSO instead of compound. A best fit curve is fitted by a minimum sum of squares method to the plot of % of control value substracted with blanc value versus compound concentration and the half maximal inhibitory concentration (IC50) value is derived from this curve.

[2] = 10 μM cGMP substrate, read-out: hPDE2A pIC50 (converted)
[3] = hPDE2A pIC50, 10 μM cGMP substrate

T1 sequence (O00408 whole entry): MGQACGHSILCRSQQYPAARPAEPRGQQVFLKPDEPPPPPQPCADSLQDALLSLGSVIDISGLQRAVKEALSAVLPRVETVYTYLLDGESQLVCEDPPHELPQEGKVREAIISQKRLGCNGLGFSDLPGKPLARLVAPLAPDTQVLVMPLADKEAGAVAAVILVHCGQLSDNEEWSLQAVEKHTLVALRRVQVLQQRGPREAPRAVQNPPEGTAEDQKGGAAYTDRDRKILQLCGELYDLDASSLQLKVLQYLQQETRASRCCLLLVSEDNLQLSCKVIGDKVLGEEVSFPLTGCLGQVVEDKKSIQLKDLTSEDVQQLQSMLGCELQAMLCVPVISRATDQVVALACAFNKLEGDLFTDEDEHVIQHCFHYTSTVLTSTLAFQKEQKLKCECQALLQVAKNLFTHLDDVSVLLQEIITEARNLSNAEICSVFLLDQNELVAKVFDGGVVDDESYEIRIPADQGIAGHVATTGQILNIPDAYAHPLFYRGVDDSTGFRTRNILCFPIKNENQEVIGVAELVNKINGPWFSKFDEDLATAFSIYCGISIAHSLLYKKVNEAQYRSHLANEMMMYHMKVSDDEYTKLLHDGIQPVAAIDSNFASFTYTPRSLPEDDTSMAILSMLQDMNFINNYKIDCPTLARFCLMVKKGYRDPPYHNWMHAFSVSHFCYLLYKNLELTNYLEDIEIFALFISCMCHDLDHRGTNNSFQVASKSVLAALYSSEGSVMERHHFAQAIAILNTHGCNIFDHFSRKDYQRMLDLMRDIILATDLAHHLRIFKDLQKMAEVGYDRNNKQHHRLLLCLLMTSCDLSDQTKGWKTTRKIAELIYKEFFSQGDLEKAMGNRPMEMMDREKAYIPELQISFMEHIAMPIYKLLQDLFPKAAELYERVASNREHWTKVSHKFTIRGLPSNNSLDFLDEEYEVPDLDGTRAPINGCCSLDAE
Sequence of hPDE10A2 (Q9Y233 267-1055): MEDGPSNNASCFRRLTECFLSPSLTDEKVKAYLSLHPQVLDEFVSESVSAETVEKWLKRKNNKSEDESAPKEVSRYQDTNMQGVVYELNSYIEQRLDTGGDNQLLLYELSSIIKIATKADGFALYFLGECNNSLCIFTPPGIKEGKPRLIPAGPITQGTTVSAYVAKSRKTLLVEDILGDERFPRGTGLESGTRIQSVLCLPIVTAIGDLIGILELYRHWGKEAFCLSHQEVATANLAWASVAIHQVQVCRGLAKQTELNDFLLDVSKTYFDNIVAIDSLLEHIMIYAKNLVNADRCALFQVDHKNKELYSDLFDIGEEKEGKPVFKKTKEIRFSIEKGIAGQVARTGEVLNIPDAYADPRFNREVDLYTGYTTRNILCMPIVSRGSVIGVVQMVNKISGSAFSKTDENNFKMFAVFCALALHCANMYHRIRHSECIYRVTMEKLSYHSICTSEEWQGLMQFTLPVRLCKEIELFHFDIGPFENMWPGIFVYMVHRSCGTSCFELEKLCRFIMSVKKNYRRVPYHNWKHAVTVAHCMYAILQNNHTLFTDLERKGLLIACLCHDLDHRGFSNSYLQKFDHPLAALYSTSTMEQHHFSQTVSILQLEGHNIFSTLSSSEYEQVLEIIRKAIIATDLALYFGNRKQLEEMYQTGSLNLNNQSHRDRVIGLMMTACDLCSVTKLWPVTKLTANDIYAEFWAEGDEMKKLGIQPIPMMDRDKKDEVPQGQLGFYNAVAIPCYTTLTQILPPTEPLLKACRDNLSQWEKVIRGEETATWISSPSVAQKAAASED

**Q.** With `Cc1cc(CN2CC[C@@H](C)[C@H](c3cc(C(F)F)nc4ncnn34)C2)cc(C2CC2)n1` [Compound 9] as the compound, how does the “hPDE3B pIC50” value (hPDE3B) read?
**A.** <5

**Q.** And the “hPDE3B Emax” value (hPDE3B)?
**A.** 34

**Q.** And the Emax ([1]; 10 μM cGMP substrate)?
**A.** 100%

**Q.** And the IC50 [1, 2]?
**A.** 0.00525 µM

**Q.** What about the IC50 (hPDE10A2) of the same compound?
**A.** 1.58 µM

**Q.** And the Emax (hPDE10A2)?
**A.** 83%

**Q.** Which “hPDE3B pIC50” value (hPDE3B) does the source give for `C[C@]1(c2cc(C(F)F)nc3ncnn23)CCCN(Cc2ccc(F)c(F)c2)C1.Cl` (stereo in doubt) [Compound 54] here?
**A.** <5

**Q.** What about the “hPDE3B Emax” value (hPDE3B) of the same compound?
**A.** 5

**Q.** And the Emax ([1]; 10 μM cGMP substrate)?
**A.** 15%

**Q.** What about the IC50 [1, 2] of the same compound?
**A.** ~8.91 µM

**Q.** What about the IC50 (hPDE10A2) of the same compound?
**A.** > 10 µM

**Q.** What about the Emax (hPDE10A2) of the same compound?
**A.** 9%

**Q.** With `C[C@@H]1CCN(CC2CCOCC2)C[C@H]1c1cc(C(F)F)nc2ncnn12.Cl` [Compound 26] as the compound, how does the “hPDE3B pIC50” value (hPDE3B) read?
**A.** <5

**Q.** What about the “hPDE3B Emax” value (hPDE3B) of the same compound?
**A.** 12

**Q.** And the Emax ([1]; 10 μM cGMP substrate)?
**A.** 27%

**Q.** What about the IC50 [1, 3] of the same compound?
**A.** ~3.09 µM

**Q.** And the IC50 (hPDE10A2)?
**A.** > 10 µM

**Q.** And the Emax (hPDE10A2)?
**A.** 12%

**Q.** Which results are given for `C[C@@H]1CCN(Cc2cccc(OC(F)F)c2)C[C@H]1c1cc(C(F)F)nc2ncnn12` [Compound 22]?
**A.** hPDE3B pIC50 (hPDE3B): <5; hPDE3B Emax (hPDE3B): 42; IC50 [1]: 0.562 µM; Emax ([1]; 10 μM cGMP substrate): 95%; IC50 (hPDE10A2): 7.76 µM; Emax (hPDE10A2): 61%

**Q.** With `COc1ccc(CN2CC[C@@H](C)[C@@H](c3cc(C(F)F)nc4ncnn34)C2)c(OC)c1` [Compound 47] as the compound, how does the “hPDE3B pIC50” value (hPDE3B) read?
**A.** <5

**Q.** What about the “hPDE3B Emax” value (hPDE3B) of the same compound?
**A.** 27

**Q.** And the Emax ([1]; 10 μM cGMP substrate)?
**A.** 25%

**Q.** What about the IC50 [1, 3] of the same compound?
**A.** ~3.47 µM

**Q.** And the IC50 (hPDE10A2)?
**A.** > 10 µM

**Q.** What about the Emax (hPDE10A2) of the same compound?
**A.** 37%

**Q.** `C[C@@H]1CCN(Cc2ccc(F)c(F)c2)C[C@@H]1c1cc(C(F)F)nc2ncnn12` [Compound 42] was tested. Which “hPDE3B pIC50” value (hPDE3B) did it give?
**A.** <5

**Q.** And the “hPDE3B Emax” value (hPDE3B)?
**A.** 19

**Q.** And the Emax ([1]; 10 μM cGMP substrate)?
**A.** 22%

**Q.** And the IC50 [1, 2]?
**A.** 3.39 µM

**Q.** What about the IC50 (hPDE10A2) of the same compound?
**A.** > 10 µM

**Q.** And the Emax (hPDE10A2)?
**A.** 45%

**Q.** With `Cc1cc([C@@H](C)N2CC[C@@H](C)[C@H](c3cc(C(F)F)nc4ncnn34)C2)cc(Cl)n1` (single isomer, unassigned) [Compound 5] as the compound, how does the “hPDE3B pIC50” value (hPDE3B) read?
**A.** 5.13

**Q.** And the “hPDE3B Emax” value (hPDE3B)?
**A.** 55

**Q.** And the Emax ([1]; 10 μM cGMP substrate)?
**A.** 100%

**Q.** And the IC50 [1, 2]?
**A.** 0.0776 µM

**Q.** What about the IC50 (hPDE10A2) of the same compound?
**A.** 1.51 µM

**Q.** And the Emax (hPDE10A2)?
**A.** 87%

**Q.** `C[C@@H]1CCN(Cc2nccc3ccccc23)C[C@H]1c1cc(C(F)F)nc2ncnn12` [Compound 19] was tested. Which “hPDE3B pIC50” value (hPDE3B) did it give?
**A.** <5

**Q.** And the “hPDE3B Emax” value (hPDE3B)?
**A.** 35

**Q.** What about the IC50 [1] of the same compound?
**A.** 0.324 µM

**Q.** And the Emax ([1]; 10 μM cGMP substrate)?
**A.** 96%

**Q.** What about the IC50 (hPDE10A2) of the same compound?
**A.** 8.51 µM

**Q.** What about the Emax (hPDE10A2) of the same compound?
**A.** 58%

**Q.** Which results are given for `C[C@@H]1CCN(Cc2ccc(Cl)c(Cl)c2)C[C@H]1c1cc(C(F)F)nc2ncnn12` [Compound 14]?
**A.** hPDE3B pIC50 (hPDE3B): <5; hPDE3B Emax (hPDE3B): 39; IC50 [1]: 0.0562 µM; Emax ([1]; 10 μM cGMP substrate): 102%; IC50 (hPDE10A2): 2.29 µM; Emax (hPDE10A2): 80%

**Q.** Which “hPDE3B pIC50” value (hPDE3B) does the source give for `C[C@@H]1CCN(Cc2cccc(C#N)n2)C[C@H]1c1cc(C(F)F)nc2ncnn12` [Compound 25] here?
**A.** <5

**Q.** And the “hPDE3B Emax” value (hPDE3B)?
**A.** 12

**Q.** What about the Emax ([1]; 10 μM cGMP substrate) of the same compound?
**A.** 92%

**Q.** And the IC50 [1, 3]?
**A.** 1.02 µM

**Q.** And the IC50 (hPDE10A2)?
**A.** > 10 µM

**Q.** And the Emax (hPDE10A2)?
**A.** 28%

**Q.** How did the “hPDE3B pIC50” value (hPDE3B) turn out when `Cc1cc(CN2CC[C@@H](C)[C@H](c3cc(C(F)F)nc4ncnn34)C2)ccn1.Cl` [Compound 15] was run?
**A.** <4.52

**Q.** What about the “hPDE3B Emax” value (hPDE3B) of the same compound?
**A.** 17

**Q.** And the IC50 [1]?
**A.** 0.0955 µM

**Q.** What about the Emax ([1]; 10 μM cGMP substrate) of the same compound?
**A.** 95%

**Q.** And the IC50 (hPDE10A2)?
**A.** ~10 µM

**Q.** What about the Emax (hPDE10A2) of the same compound?
**A.** 45%

**Q.** Which “hPDE3B pIC50” value (hPDE3B) does the source give for `C[C@@H]1CCN([C@@H](C)c2ccc(C(F)(F)F)cc2)C[C@H]1c1cc(C(F)F)nc2ncnn12` (relative stereo) [Compound 6] here?
**A.** <5

**Q.** And the “hPDE3B Emax” value (hPDE3B)?
**A.** 37

**Q.** What about the IC50 [1] of the same compound?
**A.** 0.178 µM

**Q.** And the Emax ([1]; 10 μM cGMP substrate)?
**A.** 99%

**Q.** What about the IC50 (hPDE10A2) of the same compound?
**A.** 6.31 µM

**Q.** And the Emax (hPDE10A2)?
**A.** 68%

**Q.** `COc1ccc(CN2CCC[C@](C)(c3cc(C(F)F)nc4ncnn34)C2)c(OC)c1.Cl` (stereo in doubt) [Compound 53] was tested. Which “hPDE3B pIC50” value (hPDE3B) did it give?
**A.** <5

**Q.** What about the “hPDE3B Emax” value (hPDE3B) of the same compound?
**A.** 3

**Q.** What about the Emax ([1]; 10 μM cGMP substrate) of the same compound?
**A.** 14%

**Q.** What about the IC50 [1, 3] of the same compound?
**A.** 6.92 µM

**Q.** What about the IC50 (hPDE10A2) of the same compound?
**A.** > 10 µM

**Q.** And the Emax (hPDE10A2)?
**A.** 0%

**Q.** How did the “hPDE3B pIC50” value (hPDE3B) turn out when `Cc1cc(CN2CC[C@H](C)[C@@H](c3cc(C(F)F)nc4ncnn34)C2)cc(Cl)n1.Cl` [Compound 11] was run?
**A.** ~5.4

**Q.** What about the “hPDE3B Emax” value (hPDE3B) of the same compound?
**A.** 71

**Q.** What about the IC50 [1] of the same compound?
**A.** 3.89 µM

**Q.** What about the Emax ([1]; 10 μM cGMP substrate) of the same compound?
**A.** 19%

**Q.** What about the IC50 (hPDE10A2) of the same compound?
**A.** ~10.2 µM

**Q.** And the Emax (hPDE10A2)?
**A.** 47%

**Q.** For `C[C@@H]1CCN(Cc2cc3ccccc3o2)C[C@H]1c1cc(C(F)F)nc2ncnn12.Cl` [Compound 38], which “hPDE3B pIC50” value (hPDE3B) is on record?
**A.** <5

**Q.** And the “hPDE3B Emax” value (hPDE3B)?
**A.** 28

**Q.** What about the Emax ([1]; 10 μM cGMP substrate) of the same compound?
**A.** 88%

**Q.** And the IC50 [1, 3]?
**A.** 0.162 µM

**Q.** What about the IC50 (hPDE10A2) of the same compound?
**A.** 4.68 µM

**Q.** And the Emax (hPDE10A2)?
**A.** 69%

Source: US11319321B2, “[1,2,4]triazolo[1,5-a]pyrimidine compounds as PDE2 inhibitors” (Janssen Pharmaceutica NV, priority 2016, dated 2022)
